Values quoted from earlier work, collected in patent US20050119246A1, “1H-pyrazolyl derivative compounds, for use in diseases associated with the 5-ht2c receptor” (Bayer Pharmaceuticals Corporation, priority 2001, published 2005).

Legend:
5-HT2C receptor = molecular target: T1, 5-HT2C receptor (Homo sapiens, UniProt P28335); details: background statement; comparator receptors not named
T1 sequence (P28335 33-458): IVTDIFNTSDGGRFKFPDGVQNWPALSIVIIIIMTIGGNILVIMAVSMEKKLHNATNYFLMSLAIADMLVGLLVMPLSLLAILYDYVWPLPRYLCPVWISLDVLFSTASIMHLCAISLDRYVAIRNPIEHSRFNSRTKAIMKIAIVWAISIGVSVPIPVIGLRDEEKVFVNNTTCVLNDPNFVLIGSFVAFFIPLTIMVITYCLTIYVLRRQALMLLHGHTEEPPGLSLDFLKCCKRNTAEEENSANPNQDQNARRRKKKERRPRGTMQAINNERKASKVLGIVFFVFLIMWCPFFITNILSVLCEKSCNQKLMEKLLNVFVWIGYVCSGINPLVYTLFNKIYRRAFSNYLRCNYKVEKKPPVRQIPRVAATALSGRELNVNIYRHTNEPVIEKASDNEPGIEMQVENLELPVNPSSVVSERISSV

5-HT2 receptors = details: background statement

pKi for the 5-HT2 receptors (5-HT2 receptors)	selectivity for the 5-HT2 receptors over 5-HT1 receptors (5-HT2 receptors)	SMILES	selectivity of 5-HT2C receptor antagonist (5-HT2C receptor)
–	–	Cc1cc2c(cc1Cl)N(C(=O)Nc1ccc(Oc3cccnc3C)nc1)CC2 [SB-242084]	at least 100 fold
8.9	10,000 fold	Cc1nc2sccn2c(=O)c1CCN1CCC(=C(c2ccc(F)cc2)c2ccc(F)cc2)CC1 [ritanserin]	–
